Test results from patent EP1321467A2, “High affinity inhibitors for target validation and uses thereof” (Princeton University, priority 1999, dated 2000).
“Also recorded” adds a separate entry of the source. Where two headings read alike, the source gives them in different places.

What was measured:
I338G v-Src [1] = molecular target: T1, I338G v-Src (Rous sarcoma virus subgroup A, UniProt P00524, DEL77-225/I338G); assay: biochemical; type: biochemical
T1 construct: catalytic domain of the target kinase, I338G v-Src, which was expressed in bacteria and purified as a glutathione-S-transferase (GST) fusion protein; made in house; host or cells: E. coli DH5a, pGEX-KT

[2] = test system: B cell receptor (BCR) mediated phosphorylation cascade; assay: Murine B cell assay, phosphotyrosine blot; type: cell-based; parameters: dose or concentration left out as unconfirmed; settings: 30 minutes, anti-IgM stimulation
Experimental: Murine B Cell Assay: Splenic lymphocytes were isolated from 6-20 week old Balb/c or C57/B6 mice. The cells were washed out of the spleen into RPMI media containing 1 mg/mL DNase in and the red blood cells were lysed in 17 mM tris-ammonium chloride, pH 7.2, Approximately 4x10^6 cells were incubated at 37°C for 30 minutes with […] of 3g or 2 in 1.1% DMSO. B cell stimulation was initiated by the addition of 2 mg of goat anti-mouse IgM (Jackson Immuno Research, cat# 115-005-075) and subsequent incubation for 5 minutes at 37(C. The cells were isolated by centrifugation (13,000 rpm, 2 min) and lysed (lysis buffer: 1% Triton X-100, 50 mM tris pH 7.4, 2 mM EDTA, 150 mM NaCl, […] PMSF, 2 mM sodium orthovanadate, 10 mg/mL leupeptin, 10 mg/mL apoprotin). The cellular debris was then pelleted at 13,000 rpm for 15 min. Cellular proteins were separated by 10% polyacrylamide gel electrophoresis and transferred to a nitrocellulose membrane by Western blotting. Phosphotyrosine containing proteins were visualized by immunoblotting with anti-phosphotyrosine antibody (Upstate Biotechnology, Inc.).

[3] = test system: WT v-Src transformed NIH3T3 cells; assay: Inhibition of v-Src in NIH3T3 fibroblasts, phosphotyrosine blot; type: cell-based, murine
[4] = test system: I338G v-Src transformed NIH3T3 fibroblasts; assay: Microscopy of cell morphology and polymerized actin; type: cell-based, murine
[5] = test system: WT v-Src transformed NIH3T3 fibroblasts; assay: as above; type: cell-based, murine; settings: 250 nM 6a, 16 hours
[6] = test system: I338G v-Src transformed NIH3T3 cells; assay: Inhibition of v-Src in NIH3T3 fibroblasts, phosphotyrosine blot; type: cell-based, murine
Jurkat cells = assay: Tyrosine phosphorylation in pervanadate treated Jurkat cells; type: cell-based, human; settings: 500nM 6a, 30 min, then 0.5 mM pervanadate
WT v-Src = molecular target: T2, WT v-Src (Rous sarcoma virus subgroup A, UniProt P00524, DEL77-225); assay: biochemical; type: biochemical; parameters: in vitro inhibition of WT v-Src / inhibition of WT v-Src: dose or concentration left out as unconfirmed
T2 construct: glutathione-S-transferase fusion proteins of wild type v-Src catalytic domain, I338G v-Src SH1, and WT Fyn into the pGEX-KT plasmid; GST (N); made in house; host or cells: E. coli DH5a, pGEX-KT

I338G v-Src [7] = assay: biochemical; type: biochemical; settings: for increase in affinity over previously optimized inhibitors of wild type kinases: versus PP1 on Fyn
[8] = test system: wild-type protein tyrosine kinase; assay: Screening of nucleotide analogs in murine lymphocyte lysate, anti-phosphotyrosine immunoblot; type: biochemical; settings: 100 uM nucleotide triphosphate, 37°C, 5 min
PKA = molecular target: T3, PKA (Homo sapiens, UniProt P17612); assay: In vitro kinase inhibition assay; type: biochemical; settings: concentrations up to 300 mM
T3 construct: purchased Pierce
From the text: (§1) PKA was purchased (Pierce) and used without further purification.

T339G Fyn = molecular target: T4, T339G Fyn (Homo sapiens, UniProt P06241, T342G); assay: In vitro kinase inhibition assay; type: biochemical
T4 construct: GST (N); made in house; host or cells: E. coli DH5a, pGEX-KT
T4 sequence (P06241 1-534 isoform P06241-2 T339G): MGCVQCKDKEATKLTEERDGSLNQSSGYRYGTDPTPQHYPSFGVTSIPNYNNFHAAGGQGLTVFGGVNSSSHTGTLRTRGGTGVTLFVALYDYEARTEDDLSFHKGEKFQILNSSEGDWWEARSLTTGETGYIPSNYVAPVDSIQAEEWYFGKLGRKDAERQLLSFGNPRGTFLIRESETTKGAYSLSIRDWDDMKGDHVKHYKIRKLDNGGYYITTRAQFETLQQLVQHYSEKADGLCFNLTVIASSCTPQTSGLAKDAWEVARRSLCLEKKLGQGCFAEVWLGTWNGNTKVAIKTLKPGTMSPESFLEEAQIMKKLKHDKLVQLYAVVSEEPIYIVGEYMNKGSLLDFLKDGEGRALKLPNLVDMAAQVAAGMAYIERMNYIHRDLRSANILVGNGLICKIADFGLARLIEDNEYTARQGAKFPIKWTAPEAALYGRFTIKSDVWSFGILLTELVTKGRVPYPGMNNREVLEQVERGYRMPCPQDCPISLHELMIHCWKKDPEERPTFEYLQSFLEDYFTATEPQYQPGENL
From the text: as §1

PKCd = molecular target: T5, PKCd (Homo sapiens, UniProt Q05655); assay: In vitro kinase inhibition assay; type: biochemical; settings: concentrations up to 300 mM
T5 construct: 6-His; made in house
T5 sequence (Q05655 whole entry, species assumed): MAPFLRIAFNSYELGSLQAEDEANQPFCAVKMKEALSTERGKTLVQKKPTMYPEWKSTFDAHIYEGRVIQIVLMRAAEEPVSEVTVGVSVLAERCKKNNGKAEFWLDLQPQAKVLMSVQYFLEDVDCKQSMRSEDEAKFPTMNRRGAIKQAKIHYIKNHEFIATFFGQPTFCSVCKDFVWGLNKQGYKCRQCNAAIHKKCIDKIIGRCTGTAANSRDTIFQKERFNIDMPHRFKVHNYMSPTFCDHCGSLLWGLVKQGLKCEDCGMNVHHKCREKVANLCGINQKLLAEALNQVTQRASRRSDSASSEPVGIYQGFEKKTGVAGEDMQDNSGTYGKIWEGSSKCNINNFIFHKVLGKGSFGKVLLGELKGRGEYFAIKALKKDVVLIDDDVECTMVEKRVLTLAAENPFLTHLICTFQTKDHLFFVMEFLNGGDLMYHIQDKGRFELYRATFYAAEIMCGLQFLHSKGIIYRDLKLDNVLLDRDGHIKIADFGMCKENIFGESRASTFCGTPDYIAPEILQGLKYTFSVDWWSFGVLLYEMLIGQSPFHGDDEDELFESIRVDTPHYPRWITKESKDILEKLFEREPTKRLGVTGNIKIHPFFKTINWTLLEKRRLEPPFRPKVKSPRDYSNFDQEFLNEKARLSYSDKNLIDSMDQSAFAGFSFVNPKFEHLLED

WT Fyn = molecular target: T6, WT Fyn (Homo sapiens, UniProt P06241); assay: In vitro kinase inhibition assay; type: biochemical; parameters: in vitro inhibition of Fyn: dose or concentration left out as unconfirmed; settings: for IC50: Table 3
T6 construct: GST (N); made in house; host or cells: E. coli DH5a, pGEX-KT
T6 sequence (P06241 1-534 isoform P06241-2): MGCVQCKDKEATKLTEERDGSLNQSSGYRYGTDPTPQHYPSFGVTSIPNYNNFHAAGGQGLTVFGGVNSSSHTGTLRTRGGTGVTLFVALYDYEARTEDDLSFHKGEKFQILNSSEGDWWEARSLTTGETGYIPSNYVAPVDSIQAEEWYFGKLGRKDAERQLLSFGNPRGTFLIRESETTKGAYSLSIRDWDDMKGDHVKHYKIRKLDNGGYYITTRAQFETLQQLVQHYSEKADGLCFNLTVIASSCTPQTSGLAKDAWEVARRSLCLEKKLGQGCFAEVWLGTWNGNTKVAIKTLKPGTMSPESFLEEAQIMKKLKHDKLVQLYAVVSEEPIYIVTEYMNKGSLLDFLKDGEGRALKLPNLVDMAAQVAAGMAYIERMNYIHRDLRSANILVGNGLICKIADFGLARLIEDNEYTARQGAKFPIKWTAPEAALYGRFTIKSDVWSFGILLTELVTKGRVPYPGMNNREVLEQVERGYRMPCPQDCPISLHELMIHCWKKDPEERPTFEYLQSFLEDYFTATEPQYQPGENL

[9] = test system: panel of wild-type protein kinases; assay: In vitro inhibition, panel of wild-type protein kinases; type: biochemical
glycine mutants = assay: In vitro inhibition, all glycine mutant kinases of the panel; type: biochemical; settings: read-out: IC 50's for all of the glycine mutants
wild-type cells = assay: Yeast growth; type: cell-based, Saccharomyces cerevisiae; settings: concentrations that ablate Cdc28-as1 growth
Cdc28·MBP-C1b2 = molecular target: T7, Cdc28·MBP-C1b2 (Saccharomyces cerevisiae, UniProt P00546); assay: 1-NM-PP1 IC50, Histone H1 phosphorylation; type: biochemical; settings: text b289; read-out: IC50
T7 construct: His6 (C); made in house; host or cells: Sf9 insect cells, baculovirus, co-infected with Cak1-HA3 (Cdc28-His6); bacteria (MBP-Clb2)
T7 sequence (P00546 whole entry): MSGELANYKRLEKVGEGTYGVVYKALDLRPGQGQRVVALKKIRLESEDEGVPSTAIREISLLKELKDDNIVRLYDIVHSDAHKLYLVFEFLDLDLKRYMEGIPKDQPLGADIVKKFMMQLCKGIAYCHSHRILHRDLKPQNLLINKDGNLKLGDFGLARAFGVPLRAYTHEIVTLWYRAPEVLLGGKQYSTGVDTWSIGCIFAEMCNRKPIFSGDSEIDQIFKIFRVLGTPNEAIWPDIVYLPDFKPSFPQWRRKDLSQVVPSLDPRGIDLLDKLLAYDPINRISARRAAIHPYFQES
T7 sequence (P24869 whole entry partner): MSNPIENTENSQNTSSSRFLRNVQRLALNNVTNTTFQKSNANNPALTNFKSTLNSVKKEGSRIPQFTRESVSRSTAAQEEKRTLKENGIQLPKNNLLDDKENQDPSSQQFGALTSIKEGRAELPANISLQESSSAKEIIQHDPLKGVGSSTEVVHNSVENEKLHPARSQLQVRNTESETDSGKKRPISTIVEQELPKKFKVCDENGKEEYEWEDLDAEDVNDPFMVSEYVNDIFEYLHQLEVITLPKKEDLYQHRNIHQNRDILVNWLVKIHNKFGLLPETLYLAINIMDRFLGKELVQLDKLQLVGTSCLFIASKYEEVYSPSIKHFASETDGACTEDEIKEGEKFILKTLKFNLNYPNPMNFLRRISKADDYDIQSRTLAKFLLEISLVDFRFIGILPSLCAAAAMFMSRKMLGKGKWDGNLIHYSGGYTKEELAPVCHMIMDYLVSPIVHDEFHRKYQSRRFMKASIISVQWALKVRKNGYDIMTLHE
Experimental: (§2) Purification of Cdc28-His6, Cdc28-as1-His6, MBP-Clb2: Lysate was prepared from insect cells co-infected with baculoviruses encoding Cdc28-His6 or Cdc28-as1-His6 and Cak1-HA3 (151). Cdc28-His6 and Cdc28-as1-His6 were purified by metal affinity chromatography as described (152), followed by […]. MBP-Clb2 was purified from lysates of bacteria expressing MBP-Clb2 (a gift of R. Deshaies) on an amylose column (NEBL), followed by anion-exchange chromatography (Pharmacia Q Sepharose Fast Flow).
(§3) Phosphate incorporation was determined at each inhibitor concentration by scintillation counting.

[10] = test system: S. cerevisiae expressing either wild-type Fus3, Fus3-asl, or no Fus3; assay: Non-selective cytotoxicity control, plating of mating cultures on YPD; settings: any of the three strains
F80G CDK2 = molecular target: T8, F80G CDK2 (Homo sapiens, UniProt P24941, F80G); assay: In vitro inhibition of phosphorylation of an exogenous substrate, kinase panel; type: biochemical
T8 construct: made in house

Cdc28-as1·MBP-C1b2 = Cdc28-as1·MBP-C1b2 (Saccharomyces cerevisiae, UniProt P00546, F88G); assay: 1-NM-PP1 IC50, Histone H1 phosphorylation; type: biochemical; parameters: His6 (C); made in house; host or cells: Sf9 insect cells, baculovirus, co-infected with Cak1-HA3 (Cdc28-as1-His6); bacteria (MBP-Clb2); settings: IC50, text b289
Sequence of Cdc28-as1·MBP-C1b2 (P00546 whole entry F88G): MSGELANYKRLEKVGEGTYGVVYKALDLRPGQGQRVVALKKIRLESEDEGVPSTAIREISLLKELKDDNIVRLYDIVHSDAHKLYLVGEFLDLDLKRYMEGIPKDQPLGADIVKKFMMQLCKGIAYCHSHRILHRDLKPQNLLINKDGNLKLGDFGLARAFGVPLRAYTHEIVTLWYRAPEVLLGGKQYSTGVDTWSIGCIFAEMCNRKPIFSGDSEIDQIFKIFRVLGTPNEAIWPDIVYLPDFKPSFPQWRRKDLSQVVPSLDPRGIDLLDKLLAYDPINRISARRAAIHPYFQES
Sequence of Cdc28-as1·MBP-C1b2 (P24869 whole entry, further chain): as the sequence (P24869 whole entry partner) above
Experimental: as §2, §3

fus3-as1 strain = assay: Yeast mating assay for Fus3 function; type: cell-based, Saccharomyces cerevisiae; settings: 50 µM
cdc28-as1 strain = assay: Yeast growth; type: cell-based, Saccharomyces cerevisiae; settings: concentrations without effect on wild-type strains
[11] = test system: wild-type Fus3 expressing cells; assay: Yeast mating assay for Fus3 function; type: cell-based, Saccharomyces cerevisiae; settings: all concentrations up to 50 µM
F89G CAMK IIα = molecular target: T9, F89G CAMK IIα (Homo sapiens, UniProt Q9UQM7, F89G); assay: In vitro inhibition of phosphorylation of an exogenous substrate, kinase panel; type: biochemical
T9 construct: made in house
T9 sequence (Q9UQM7 whole entry F89G): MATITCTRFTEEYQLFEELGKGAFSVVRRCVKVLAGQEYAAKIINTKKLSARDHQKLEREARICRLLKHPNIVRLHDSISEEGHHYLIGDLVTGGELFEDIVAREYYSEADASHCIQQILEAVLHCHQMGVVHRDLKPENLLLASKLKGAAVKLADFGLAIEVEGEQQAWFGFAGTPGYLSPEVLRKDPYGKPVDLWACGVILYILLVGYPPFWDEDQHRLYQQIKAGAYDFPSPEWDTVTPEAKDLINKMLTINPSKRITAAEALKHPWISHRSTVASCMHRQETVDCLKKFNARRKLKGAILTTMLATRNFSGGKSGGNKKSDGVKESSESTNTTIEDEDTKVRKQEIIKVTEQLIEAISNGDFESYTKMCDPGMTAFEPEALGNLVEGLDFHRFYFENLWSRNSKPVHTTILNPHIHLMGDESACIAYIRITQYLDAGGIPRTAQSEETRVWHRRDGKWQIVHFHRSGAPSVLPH

SMILES: CC(C)(C)n1nc(-c2ccccc2)c2c(N)ncnc21 [2 (Figure 14), 4-Amino-1-tert-butyl-3-phenylpyrazolo [3,4-d] pyrimidine]
- IC50 (I338G v-Src [1]): 430 nM
- phosphotyrosine pattern of B cell stimulation [2]: significant reduction in tyrosine phosphorylation

SMILES: CC(C)(C)n1nc(-c2cccc3ccccc23)c2c(N)ncnc21 [4-amino-1-(tert-butyl)-3-(1'-naphthyl)pyrazolo[3,4-d]pyrimidine]
- phosphotyrosine signal ([3]; 500nM 6a): no loss of phosphotyrosine signal
- actin fibers and morphology ([4]; 250 nM 6a, 16 hours): clear actin fibers and appear indistinguishable from normal NIH3T3 fibroblasts; also recorded: selectively acquire a flattened morphology and selectively regain actin stress
- actin fibers and morphology [5]: indistinguishable from untreated wild type cells; also recorded: no effect on this non-mutant cell line
- tyrosine phosphorylation ([6]; varying concentrations of 6a, 30 min): strongly diminishes tyrosine phosphorylation in a concentration dependent manner within minutes
- tyrosine phosphorylation (Jurkat cells): no detectable decrease in phosphorylation
- IC50 (WT v-Src): 1000 nM
- increase in affinity over previously optimized inhibitors of wild type kinases (I338G v-Src [7]): 20 fold
- IC50 (I338G v-Src [1]): 1.5 nM

SMILES: CC(C)(C)n1nc(-c2ccccc2)c2c(N)ncnc21 [Compound 1]
- level of protein tyrosine phosphorylation [8]: some ability to serve as cellular protein tyrosine kinase substrates

SMILES: CC(C)(C)c1ccc(C(=O)Nc2ncnc3c2c(-c2ccccc2)nn3C(C)(C)C)cc1 [Compound 3g, 4-(p-tert-butyl)benzamido-1-tert-butyl-3-phenylpyrazolo[3,4-d]pyrimidine]
- tyrosine phosphorylation ([3]; 3g, 12 hours): no loss of tyrosine phosphorylation
- cell morphology and polymerized actin ([4]; 3g, 48 hours): dramatic changes in cell morphology which are consistent with the reversal of transformation; also recorded: defined polymerized actin strings, strongly resembling the actin formations of non-transformed NIH3T3 fibroblasts; also recorded: selectively acquire a flattened morphology and selectively regain Actin stress fibers
- cellular IC50 relative to the in vitro value [6]: roughly 100 times
- tyrosine phosphorylation ([6]; 3g, 12 hours): dramatic diminution in the tyrosine phosphorylation of the putative v-Src substrate, p36; also recorded: blocks p36 phosphorylation in I338G v-Src
- IC50 ([6]; Mus musculus, NIH3T3, read-out: IC50 for p36 phosphotyrosine signal): ~50000 nM
- inhibition of PKA (PKA): not detectably inhibited
- selectivity for T339G Fyn over WT Fyn (T339G Fyn): greater than 300 fold
- inhibition of WT v-Src (WT v-Src; limit of solubility): no inhibition
- inhibition of PKCd (PKCd): not detectably inhibited
- inhibits the engineered v-Src more effectively than WT Fyn (I338G v-Src [7]; in vitro): over 700 times
- selectivity for I338G v-Src with respect to wild type v-Src (I338G v-Src [7]; in vitro): ≥ 1000 fold
- IC50 (I338G v-Src [1]; read-out: IC50): 430 nM
- IC50 (I338G v-Src [1]; text b249, read-out: IC50): 430 nM
- phosphotyrosine pattern of B cell stimulation [2]: no effect on the phosphotyrosine pattern of B cell stimulation

SMILES: CC(C)(C)n1nc(-c2ccc3ccccc3c2)c2c(N)ncnc21 [Compound 6b, 4-amino-1-(tert-butyl)-3-(2'-naphthyl)pyrazolo[3,4-d]pyrimidine]
- increase in affinity over previously optimized inhibitors of wild type kinases (I338G v-Src [7]): 20 fold

SMILES: CC(C)(C)n1nc(-c2cccc(OCc3ccccc3)c2)c2c(N)ncnc21 [Compound 6d, 4-amino-1-(tert-butyl)-3-(m-benzyloxyphenyl)pyrazolo[3,4-d]pyrimidine]
- selectivity for I338G v-Src with respect to wild type Fyn (I338G v-Src [7]; in vitro): > 100 fold

SMILES: CC(C)(C)n1nc(-c2cccc(OCc3c(Cl)cccc3Cl)c2)c2c(N)ncnc21 [Compound 6e, 4-amino-1-(tert-butyl)-3-(m-(2',6'-dichloro)benzyloxyphenyl) pyrazolo[3,4-d]pyrimidine]
- IC50 (WT v-Src; Table 3, read-out: vSrc): 300000 nM
- IC50 (I338G v-Src [1]; Table 3, read-out: 1338G v-Src): 130 nM

SMILES: CC(C)(C)n1nc(Cc2ccc3c(c2)OCO3)c2c(N)ncnc21 [Compound 6f, 4-amino-1-(tert-butyl)-3-piperonylpyrazolo[3,4-d]pyrimidine]
- selectivity for I338G v-Src with respect to wild type v-Src (I338G v-Src [7]; in vitro): ~120 fold

SMILES: CC(C)(C)c1ccc(-c2nn(C(C)(C)C)c3ncnc(N)c23)cc1 [Compound 6g, 4-amino-1-(tert-butyl)-3-(p-tert-butylphenyl)pyrazolo[3,4 d]pyrimidine]
- IC50 (WT v-Src; Table 3, read-out: vSrc): 65000 nM
- IC50 (I338G v-Src [1]; Table 3, read-out: 1338G v-Src): 99 nM

SMILES: CC(C)(C)n1nc(COc2cccc3ccccc23)c2c(N)ncnc21 [Compound 6i, 4-amino-1(tert-butyl)-3-(1'-naphthoxymethyl)pyrazolo[3,4-d]pyrimidine]
- IC50 (WT Fyn): > 300000 nM
- IC50 (WT v-Src; Table 3, read-out: vSrc): > 300000 nM
- selectivity for I338G v-Src with respect to wild type v-Src (I338G v-Src [7]; in vitro): > 6500 fold
- IC50 (I338G v-Src [1]; Table 3, read-out: 1338G v-Src): 45 nM

SMILES: CC(C)(C)n1nc(Cc2ccc3ccccc3c2)c2c(N)ncnc21 [Compound 6j, 4-amino-1-(tert-butyl)-3-(2'-naphthylmethyl)pyrazolo[3,4-d]pyrimidine]
- IC50 (WT Fyn): > 300000 nM
- IC50 (WT v-Src; Table 3, read-out: vSrc): > 300000 nM
- IC50 (I338G v-Src [1]; Table 3, read-out: 1338G v-Src): 20 nM

SMILES: CC(C)(C)n1nc(Cc2cccc3ccccc23)c2c(N)ncnc21 [Compound 11]
- concentration below which none of the wild-type kinases tested are inhibited [9]: ≥ 1 µM
- IC50 (glycine mutants): < 10 nM
- growth of wild-type strains (wild-type cells): no effect on the growth of wild-type strains
- IC50 (Cdc28·MBP-C1b2): > 50000 nM
- cfu/mL on YPD plates [10]: No significant decrease in cfu/mL on YPD plates
- IC50 (F80G CDK2): 5 nM
- IC50 (Cdc28-as1·MBP-C1b2): 3.9 nM
- decrease in mating (fus3-as1 strain): 85 fold
- growth of yeast which express Cdc28-as1 (cdc28-as1 strain): completely ablated
- diploid colonies [11]: 0.6-1.1 x 10^5 cfu/ml
- IC50 (F89G CAMK IIα): 8 nM

SMILES: OC[C@H]1O[C@@H](n2cnc3c(NOC4CCCC4)ncnc32)[C@H](O)[C@@H]1O [N-6 cyclopentyloxyadenosine]
- in vitro inhibition of Fyn (WT Fyn): no detectable in vitro inhibition
- in vitro inhibition of WT v-Src (WT v-Src): no detectable in vitro inhibition
